Results as given in publication PMC5562305, “Impact of novel palmitoylated prolactin-releasing peptide analogs on metabolic changes in mice with diet-induced obesity” (PLoS ONE, 2017).
Where “and” joins values, the source holds several entries; their conditions need not be identical. Equal values may be shown once. Read-outs that look alike come from different tables or passages of the source. Starred links: 1 amine or outer side, 2 acyl side, 3 side chain; linkers in the order of their positions; H or OH if unused. Residues, ends and D or L forms follow the SMILES beside them. Groups on a side chain read outwards from the residue. *: point of attachment. TTDA(Palmitoyl) = CCCCCCCCCCCCCCCC(=O)NCCCOCCOCCOCCCN*; Suc = O=C(CCC(=O)[*:2])[*:1]

Assays:
[1] = Cumulative food intake of DIO mice during 2-week SC treatment; type: in vivo, C57BL/6 mice; conditions: two weeks of SC treatment, 5 mg/kg twice a day, in words
Text: (§1) Inbred C57BL/6 male mice that were 3 weeks old were obtained from Charles River Laboratories (Sulzfeld, Germany). […] From 8 weeks of age, the mice were fed in house made high-fat (HF) diet to induce obesity. […] After twelve weeks of HF-diet feeding, two weeks of SC administration of lipidized PrRP analogs was initiated while the mice were kept on the HF diet. The following experimental groups were established: […] Food intake and BW were monitored daily during the dosing period.

[2] = Body weight of DIO mice during 2-week SC treatment; type: in vivo, C57BL/6 mice
Text: as §1

[3] = Adipose tissue and liver weights in DIO mice at the end of the experiment; type: in vivo, C57BL/6 mice; conditions: 5 mg/kg SC twice a day, 2 weeks, n = 10, mean ± SEM
Text: (§2) From 8 weeks of age, the mice were fed in house made high-fat (HF) diet to induce obesity. […] After twelve weeks of HF-diet feeding, two weeks of SC administration of lipidized PrRP analogs was initiated while the mice were kept on the HF diet. The following experimental groups were established: […] Food intake and BW were monitored daily during the dosing period. At the end of the experiment, the mice were sacrificed by decapitation. The trunk blood was collected, and the blood plasma was separated and stored at -20°C. The visceral adipose tissues (VAT) (from abdominal part), subcutaneous adipose tissues (SCAT) (all adipose tissue depots under the skin), perirenal adipose tissues, interscapular brown adipose tissues (BAT), and livers of all of the mice were dissected, weighed, flash-frozen in liquid nitrogen, and stored at -70°C for later extraction of RNA.

[4] = molecular target: T1, GPR10 (Homo sapiens, UniProt P49683); assay: Competitive binding of 125I-human PrRP31 to plated CHO-K1 cells expressing GPR10; set-up: host or cells: CHO-K1; conditions: for Ki: CHO-K1 cells, 0.03 nM radioligand, 60 min 25°C, Cheng-Prusoff, mean ± SEM of at least three experiments, SEM; for % binding human PrRP31 (GPR10): Ki relative to human PrRP31 = 100; for 125I-human PrRP31 binding to human GPR10, Ki: single experiments (replicates listed below each other)
T1 sequence (P49683 1-370): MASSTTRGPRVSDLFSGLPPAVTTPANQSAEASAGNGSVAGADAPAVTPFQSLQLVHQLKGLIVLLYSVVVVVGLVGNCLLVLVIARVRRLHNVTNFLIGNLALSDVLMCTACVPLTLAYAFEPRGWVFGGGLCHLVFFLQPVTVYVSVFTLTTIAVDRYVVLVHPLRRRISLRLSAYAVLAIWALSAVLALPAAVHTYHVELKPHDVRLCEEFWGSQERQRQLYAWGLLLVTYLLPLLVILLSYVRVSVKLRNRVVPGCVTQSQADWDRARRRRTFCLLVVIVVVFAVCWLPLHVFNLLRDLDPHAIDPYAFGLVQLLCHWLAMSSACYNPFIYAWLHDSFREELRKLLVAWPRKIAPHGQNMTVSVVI
Description: CHO-K1 cells expressing the GPR10 receptor (Thermo Fisher Scientific Inc., Waltham, MA, USA) were grown according to the manufacturer's instructions. Saturation and competitive binding experiments were performed according to the methods of Motulsky and Neubig. […] The experiments were performed on plated cells that were incubated for 60 min at 25°C. Non-specific binding was determined using 10^−5 M PrRP31. The binding assays involving human NPFF2 receptor membranes obtained from Perkin Elmer were performed as described in [18].
Data are presented as the means ± SEM. The competitive binding curves were plotted using GraphPad software (San Diego, CA, USA), and the best fits were compared for single-binding-site models (IC50 values were obtained from nonlinear regression analysis). Inhibition constants (Ki) were calculated from the IC50 values using the Cheng-Prusoff equation [23]. The concentration of the radioligand was 0.1 nM for cell membranes of CHO-K1 cells overexpressing NPFF2 and 0.03 nM for CHO-K1 cells overexpressing GPR10.

[5] = molecular target: T1, GPR10; assay: Beta-lactamase-dependent FRET assay (bla reporter gene) in CHO-K1 cells overexpressing GPR10; type: cell-based; set-up: expressed in transfected cells; host or cells: CHO-K1
Description: CHO-K1 cells overexpressing GPR10 were plated at 40,000 cells/well in 128 μl of assay medium (DMEM containing 10% dialyzed FBS, 0.1 mM NEAA, 25 mM HEPES, 1% penicillin/streptomycin, and 2 mM L-glutamine) in a 96-well plate and were incubated for 20 h at 37°C/5% CO2. The assay was performed according to the manufacturer's protocol.
The results from the lactamase assay were analyzed using nonlinear regression by log agonist vs. response using GraphPad software.

[6] = Hormonal and biochemical (metabolic) parameters in blood of DIO mice; type: in vivo, C57BL/6 mice; conditions: mean ± SEM; for Glucose: blood; for Glucose / FFA / Insulin / Leptin / T Chol (total cholesterol) / Triglycerides: 5 mg/kg SC twice a day, 2 weeks; for HOMA index: fasting glucose x fasting insulin / 22.5, 2 weeks; for FFA / Insulin / Leptin / T Chol (total cholesterol) / Triglycerides: plasma
Text: as §2, with “RNA. The plasma insulin concentrations were measured using an RIA assay (Millipore, St. Charles, MI, USA), and the leptin concentrations were determined by ELISA (Millipore, St. Charles, MI, USA). The blood glucose levels were measured using a Glucocard glucometer (Arkray, Kyoto, Japan). The plasma triglyceride levels were measured using a quantitative enzymatic reaction (Sigma, St. Louis, MO, USA), and the free fatty acids (FFA) levels were determined using a colorimetric assay (Roche, Mannheim, Germany). Cholesterol was determined by colorimetric assay (Erba Lachema, Brno, Czech Republic). All measurements were performed according to the manufacturer's instructions.” for “RNA.”

Structure (SMILES)	Food intake compared to the saline-treated control group [1]	Decrease of average BW at the end of the experiment ([2]; 5 mg/kg SC twice a day, 2 weeks)	Liver weight [3]	Perirenal AT [3]	Total AT [3]	Ki [4]	% binding human PrRP31 (GPR10) [4]	125I-human PrRP31 binding to human GPR10, Ki [4]	EC50 ([5]; average of the single experiments, read-out: Activation of bla reporter gene in GPR10 overexpressing cells, EC50, AVERAGE)	Glucose [6]	HOMA index [6]	FFA [6]	Insulin [6]	Leptin [6]	T Chol (total cholesterol) [6]	Triglycerides [6]	Effect on BW ([2]; two weeks of SC treatment, 5 mg/kg twice a day, in words)	EC50 ([5]; CHO-K1 cells, mean ± SEM of at least three experiments, SEM, read-out: Activation of bla reporter gene in GPR10 overexpressing cells, EC50)
CCCCCCCCCCCCCCCC(=O)NCCCOCCOCCOCCCNC(=O)CCC(=O)NCCCC[C@H](NC(=O)[C@@H](NC(=O)[C@H](CCC(=O)O)NC(=O)[C@H](CCSC)NC(=O)[C@H](CO)NC(=O)[C@H](Cc1c[nH]cn1)NC(=O)[C@H](CCCNC(=N)N)NC(=O)[C@H](Cc1c[nH]cn1)NC(=O)[C@@H](NC(=O)[C@H](CCCNC(=N)N)NC(=O)[C@@H](N)CO)[C@@H](C)O)[C@@H](C)CC)C(=O)N[C@H](C(=O)N1CCC[C@H]1C(=O)N[C@@H](CC(=O)O)C(=O)N[C@H](C(=O)N[C@@H](CC(N)=O)C(=O)N1CCC[C@H]1C(=O)N[C@@H](C)C(=O)N[C@@H](Cc1c[nH]c2ccccc12)C(=O)N[C@@H](Cc1ccc(O)cc1)C(=O)N[C@@H](C)C(=O)N[C@@H](CO)C(=O)N[C@@H](CCCNC(=N)N)C(=O)NCC(=O)N[C@H](C(=O)N[C@@H](CCCNC(=N)N)C(=O)N1CCC[C@H]1C(=O)N[C@H](C(=O)NCC(=O)N[C@@H](CCCNC(=N)N)C(=O)N[C@@H](Cc1ccccc1)C(N)=O)C(C)C)[C@@H](C)CC)[C@@H](C)CC)[C@@H](C)O [analog 2] (H-SRTHRHSMEIK([Suc-TTDA(Palmitoyl)])TPDINPAWYASRGIRPVGRF-NH2; N-terminus assumed)	significantly reduced	11.75%	1.31 ± 0.06 g	2.73 ± 0.17 % of BW	15.70 ± 0.53 % of BW	3.79 ± 0.47 nM	121%	4.698 nM and 3.31 nM and 3.352 nM	0.0835 nM	7.26 ± 0.31 mmol/L	86.27 ± 0.64	0.52 ± 0.02 mmol/L	1.55 ± 0.27 ng/mL	23.64 ± 3.54 ng/mL	3.96 ± 0.26 mmol/L	0.44 ± 0.04 mg/mL		
CCCCCCCCCCCCCCCC(=O)NCCCOCCOCCOCCCNC(=O)CCC(=O)NCCCC[C@H](NC(=O)[C@@H](NC(=O)[C@H](CCC(=O)O)NC(=O)[C@H](CCSC)NC(=O)[C@H](CO)NC(=O)[C@H](Cc1c[nH]cn1)NC(=O)[C@H](CCCNC(=N)N)NC(=O)[C@H](Cc1c[nH]cn1)NC(=O)[C@@H](NC(=O)[C@H](CCCNC(=N)N)NC(=O)[C@H](CO)NC(=O)CCC(=O)NCCCOCCOCCOCCCNC(=O)CCCCCCCCCCCCCCC)[C@@H](C)O)[C@@H](C)CC)C(=O)N[C@H](C(=O)N1CCC[C@H]1C(=O)N[C@@H](CC(=O)O)C(=O)N[C@H](C(=O)N[C@@H](CC(N)=O)C(=O)N1CCC[C@H]1C(=O)N[C@@H](C)C(=O)N[C@@H](Cc1c[nH]c2ccccc12)C(=O)N[C@@H](Cc1ccc(O)cc1)C(=O)N[C@@H](C)C(=O)N[C@@H](CO)C(=O)N[C@@H](CCCNC(=N)N)C(=O)NCC(=O)N[C@H](C(=O)N[C@@H](CCCNC(=N)N)C(=O)N1CCC[C@H]1C(=O)N[C@H](C(=O)NCC(=O)N[C@@H](CCCNC(=N)N)C(=O)N[C@@H](Cc1ccccc1)C(N)=O)C(C)C)[C@@H](C)CC)[C@@H](C)CC)[C@@H](C)O [analog 3] ({TTDA(Palmitoyl)-Suc}-SRTHRHSMEIK([Suc-TTDA(Palmitoyl)])TPDINPAWYASRGIRPVGRF-NH2)	did not have any significant effects		1.58 ± 0.09 g	3.09 ± 0.16 % of BW	16.13 ± 0.38 % of BW	32.4 ± 3.57 nM	14%	39 nM and 26.7 nM and 31.5 nM		7.91 ± 0.46 mmol/L	163.13 ± 1.06	0.62 ± 0.03 mmol/L	2.69 ± 0.30 ng/mL	40.30 ± 5.57 ng/mL	4.86 ± 0.17 mmol/L	0.63 ± 0.05 mg/mL	did not have any significant effects	0.284 ± 0.054 nM
